In patent US5430058A, “Pharmaceutical compositions comprising hydroxamate derivatives for iron removal” (Yeda Research and Development Co. Ltd., priority 1993, dated 1995):
In brackets after ≈: the same amount, converted by molar mass. Read-outs that look alike come from different tables or passages of the source.

Assays:
[1] = Relative iron(III) binding efficiency by competition with EDTA; assay type: physicochemical; details: for rel. Fe binding (b): Table 2, relative to DFO = 1.16, 0.75 mM hydroxamate, 0.15 mM EDTA, 0.15 mM Fe3+ in aqueous methanol; for Pcoeff*Fe binding (a*b): product of relative partition coefficient and relative iron(III) binding; for Relative binding: Table 1, DFO = 100, competition with EDTA in aqueous MeOH
Description: c. The relative binding efficiencies of the reversed siderophores (0.75 mM reversed siderophore and 0.15 mM Fe^3+ in aqueous MeOH (MeOH-0.1N NaOAc) were incubated with EDTA (0.15 mM). After equilibration overnight, the fraction of siderophore- Fe^3+ complex present was determined at 430 nm.
(§1) The values for Pcoeff of free RSF ileun2 (the same as SF1ileu) and of leun2 and their respective iron(III) complexes were similar (not shown).

[2] = Partition between n-octanol and saline; assay type: physicochemical; details: for rel. Pcoeff (a): Table 2, relative to L-val-n1 = 1.0; for logP: Table 1, free ligand, read-out: Partition coefficient (converted)
Description: e. Partition coefficients were obtained by overnight equilibration of the free reversed siderophores between equal volumes of n-octanol and saline. The concentrations of the ligands in each phase were determined by adding excess iron(III) and measuring the ferric complexes at 430 nm.
as §1

[3] = system: trophozoites of P. falciparum; assay: Antimalarial activity (Table 2), [3H]-hypoxanthine incorporation; assay type: cell-based, Plasmodium falciparum; details: Plasmodium falciparum
Description: g. Bioassay of iron carrier antimalarial activity. The antimalarial activity was assayed by adding the compounds from concentrated stock solutions (in DMSO) to microcultures (24 wells, Costar) containing infected red cells (2.5% hematocrit and 2% parasitemia). The cultures were usually synchronized (4-7 hrs. windows) by incubation in 300 mM Ala, 10 mM TRIS-Cl in conjunction with gelatin flotation and used either at the trophozoite (1-2% parasitemia) or at the ring stage (4-6% parasitemia) of the erythrocyctic cycle. After the indicated time of incubation with drug and either previous to or after washing 3 times with 100 volumes growth medium, the cells were supplemented with 6 μCi of either [^3 H]-hypoxanthine or [^3 H]-Ileu (Amersham, England) per well and parasite growth assessed after 24-48 hours by harvesting the labelled cells onto glass-fiber filters (Tamar, Inc. Jerusalem) and counting of the radioactivity. […]

normal red cells = assay: Uptake of 59Fe-carrier complexes into normal red cells; assay type: cell-based, human
Description: (§2) k. Uptake of radioactive carrier-Fe complexes. DFO and the different SF derivatives were pre-complexed with iron by addition of concentrated stock solutions of 20 mg/ml carriers to ^59 FeCl3 (Amersham, England) in 0.5 ml of 150 mM NaCl, 10 mM Hepes at 3-5 molar excess of carrier for 1 hour at room temperature. To begin the flux, normal or parasitized red cells that had been washed 3 times in saline buffer and resuspended in the same buffer supplemented with 5% bovine serum albumin (BSA), 2.5 mM citrate, 2 mg/ml glucose were added to radioactive ^59 Fe-complexes at a final suspension of 20% hematocrit. After incubation at 37° C., 75 μl suspension was removed in duplicate aliquots for each time point, placed in plastic 15 ml test tube (Starstedt) and centrifuged 1 minute at 2,500 g. The supernatant was removed and the pellet immediately placed on ice. After all sampling was completed the pellets were washed twice in 15 ml of ice cold buffer containing 50 mM EDTA and lysed in distilled water. Radioactivity (Gamma emission, 700-1300 Kev) was counted and the cell number for each sample determined from hemoglobin absorption of the lysate at 410 nm.
Due to the fact that RSF's have markedly greater lipophilicity than DFO, they were expected to faster penetrate and therefore more effectively chelate intracellular iron after short exposure times. Penetration of RSF's into normal and infected red cells was estimated by monitoring uptake of the RSF's-^59 Fe(III) complexes into infected and uninfected cells and compared to DFO. In order to confirm actual uptake of Fe-RSF ileun2 rather than adsorption to the outer membrane, cells were thoroughly washed and lysates were subjected to 80,000g×20 min centrifugation. More than 90% of the total counts were found in the cytosol fraction (results not shown).
FIGS. 8a and 8b show uptake of Fe^59 -carrier complexes into normal and infected red cells. Uptake of ^59 -Fe-RSF (FIG. 8a) and ^59 Fe-DFO (FIG. 8b) into normal (open symbols) and infected (closed symbols) red cells (60% parasitemia, >90% trophozoites). The carriers were pre-complexed to ^59 FeCl3 at 4:1 ration in DMSO with 5 μM external FeCl3 (from methanolic stock solutions). The radioactive complexes were then added to 20% hematocrit cell suspensions and flux was measured. Specific activity was 485000 cpm/nmole and 369000 cpm/nmole for the RSF and DFO uptake experiments, respectively. Cell number was determined from hemoglobin absorption of lysate at 410 nm.

infected red cells = assay: Uptake of 59Fe-carrier complexes into infected red cells; assay type: cell-based, human erythrocytes infected with P. falciparum
Description: as §2
Penetration of RSF's into normal and infected red cells was estimated by monitoring uptake of the RSF's-^59 Fe(III) complexes into infected and uninfected cells and compared to DFO. In order to confirm actual uptake of Fe-RSF ileun2 rather than adsorption to the outer membrane, cells were thoroughly washed and lysates were subjected to 80,000g×20 min centrifugation.
The carriers were pre-complexed to ^59 FeCl3 at 4:1 ration in DMSO with 5 μM external FeCl3 (from methanolic stock solutions). The radioactive complexes were then added to 20% hematocrit cell suspensions and flux was measured. […] Cell number was determined from hemoglobin absorption of lysate at 410 nm.

[4] = Extraction of iron from aqueous FeCl3/citrate into chloroform; assay type: physicochemical; details: 0.3 mM in chloroform vs 0.3 mM FeCl3, 0.3 mM citric acid, 40 mM TRIS, pH 6.9, overnight
Description: d. Extractions were performed by overnight equilibration of 0.3 mM chloroform solutions of reversed siderophore with aqueous solutions of 0.3 mM FeCl3, 0.3 mM citric acid, 40 mM TRIS, pH 6.9. The amount of iron taken up into the organic phase was determined by the absorption of the iron+complex at 430 nm. No iron uptake into chloroform solutions devoid of RSF was observed by ion chromatography.

[5] = system: trophozoites of P. falciparum, strain ItG2G1; assay: Antimalarial activity (Table 1), [3H]hypoxanthine incorporation; assay type: cell-based; details: Plasmodium falciparum, 48 h
Description: f. Parasite cultures. The P. falciparum strains used in the experiments: ItG2G1 (Brazil, provided by Dr. L. H. Miller), D6 (W. African, provided by Dr. A. J. M. Oduola) FCR-3 (Gambian, provided by Dr. J. B. Jensen) and W2 (Indochina, provided by Dr. A. J. M. Oduola), were grown in culture flasks of human erythrocytes by a modified version of Trager and Jensen's method as described by Silfen et al. ((1988) Biochem. Pharmacol. 37: 4269-4276)).
g. Bioassay of iron carrier antimalarial activity. The antimalarial activity was assayed by adding the compounds from concentrated stock solutions (in DMSO) to microcultures (24 wells, Costar) containing infected red cells (2.5% hematocrit and 2% parasitemia). The cultures were usually synchronized (4-7 hrs. windows) by incubation in 300 mM Ala, 10 mM TRIS-Cl in conjunction with gelatin flotation and used either at the trophozoite (1-2% parasitemia) or at the ring stage (4-6% parasitemia) of the erythrocyctic cycle. After the indicated time of incubation with drug and either previous to or after washing 3 times with 100 volumes growth medium, the cells were supplemented with 6 μCi of either [^3 H]-hypoxanthine or [^3 H]-Ileu (Amersham, England) per well and parasite growth assessed after 24-48 hours by harvesting the labelled cells onto glass-fiber filters (Tamar, Inc. Jerusalem) and counting of the radioactivity.
The antimalarial activity of the different chelators was initially evaluated on cultures of trophozoites which were exposed for 24 hours to different concentrations of chelators. Following that period, [^3 H]-hypoxanthine or [^3 H]-Ileu were added and 24 hours later the parasitemia and incorporation of label into macromolecular material was determined.

[6] = amino acid side chain, Tanford/Segret's scale as given by Eisenberg 1984; cited from earlier work
[7] = trophozoites, 40 hours exposure, mean of 3-4 experiments, read-out: IC50 (c)

SMILES: CCC(COCC(=O)N[C@@H](CC(C)C)C(=O)N(C)O)(COCC(=O)N[C@@H](CC(C)C)C(=O)N(C)O)COCC(=O)N[C@@H](CC(C)C)C(=O)N(C)O [(L--leu) n=1]
- rel. Fe binding (b) [1]: 0.23
- Pcoeff*Fe binding (a*b) [1]: 3.86
- rel. Pcoeff (a) [2]: 17.0
- IC50 [3, 7]: 5 ± 2 µM
- Uptake kinetics compared with RSF-ileun2 (normal red cells): Identical uptake kinetics
- Uptake kinetics compared with RSF-ileun2 (infected red cells): Identical uptake kinetics

SMILES: CCC(COCCC(=O)N[C@@H](C)C(=O)N(C)O)(COCCC(=O)N[C@@H](C)C(=O)N(C)O)COCCC(=O)N[C@@H](C)C(=O)N(C)O [SF1--L--ala]
- Relative binding [1]: 108
- rel. Fe binding (b) [1]: 1.25
- Pcoeff*Fe binding (a*b) [1]: 0.37
- Extraction efficiency [4]: 88
- logP [2]: -0.276
- rel. Pcoeff (a) [2]: 0.3
- IC50 [5]: 40 µg/mL (≈ 61.5 µM)
- IC50 ([3]; 40 h, read-out: IC50 (c)): 62 ± 10 µM
- Hydrophobicity [6]: 1.0

SMILES: CCC(COCCC(=O)N[C@@H](CC(C)C)C(=O)N(C)O)(COCCC(=O)N[C@@H](CC(C)C)C(=O)N(C)O)COCCC(=O)N[C@@H](CC(C)C)C(=O)N(C)O [SF1--L--leu]
- Relative binding [1]: 10
- rel. Fe binding (b) [1]: 0.12
- Pcoeff*Fe binding (a*b) [1]: 0.9
- Extraction efficiency [4]: 35
- logP [2]: 1.1
- rel. Pcoeff (a) [2]: 7.4
- Pcoeff of free ligand vs iron(III) complex ([2]; not shown): similar
- IC50 [5]: 17 µg/mL (≈ 21.9 µM)
- IC50 ([3]; 40 h, read-out: IC50 (c)): 22 ± 4 µM
- Hydrophobicity [6]: 3.5

SMILES: CCC(COCCC(=O)N[C@H](C)C(=O)N(C)O)(COCCC(=O)N[C@H](C)C(=O)N(C)O)COCCC(=O)N[C@H](C)C(=O)N(C)O [SF1--D--ala]
- Relative binding [1]: 108
- rel. Fe binding (b) [1]: 1.25
- Pcoeff*Fe binding (a*b) [1]: 0.37
- Extraction efficiency [4]: 88
- logP [2]: -0.276
- rel. Pcoeff (a) [2]: 0.3
- IC50 [5]: 45 µg/mL (≈ 69.2 µM)
- IC50 ([3]; 40 h, read-out: IC50 (c)): 70 ± 13 µM
- Hydrophobicity [6]: 1.0

SMILES: CC[C@@H](C)[C@@H](NC(=O)CCOCC(CC)(COCCC(=O)N[C@@H](C(=O)N(C)O)[C@H](C)CC)COCCC(=O)N[C@@H](C(=O)N(C)O)[C@H](C)CC)C(=O)N(C)O [(D--ileu) n=2]
- rel. Fe binding (b) [1]: 0.298
- Pcoeff*Fe binding (a*b) [1]: 2.4
- rel. Pcoeff (a) [2]: 8.2
- IC50 ([3]; 40 h, read-out: IC50 (c)): 9 ± 3 µM

SMILES: CCC(COCC(=O)N[C@H](C(=O)N(C)O)C(C)C)(COCC(=O)N[C@H](C(=O)N(C)O)C(C)C)COCC(=O)N[C@H](C(=O)N(C)O)C(C)C [(L--val) n=1]
- rel. Fe binding (b) [1]: 1.0
- rel. Fe binding (b) ([1]; listed as L-val n1): 1
- Fe-binding affinity relative to DFO ([1]; percent that of DFO): 86%
- Pcoeff*Fe binding (a*b) [1]: 1.0
- Pcoeff*Fe binding (a*b) ([1]; listed as L-val of n1 subfamily): 1
- rel. Pcoeff (a) [2]: 1.0
- IC50 ([3]; discussion of Table 2, unit inferred, read-out: IC50): 4 µM
- IC50 [3, 7]: 4 ± 1 µM

SMILES: CC[C@H](C)[C@H](NC(=O)COCC(CC)(COCC(=O)N[C@H](C(=O)N(C)O)[C@@H](C)CC)COCC(=O)N[C@H](C(=O)N(C)O)[C@@H](C)CC)C(=O)N(C)O [(L--ileu) n=1]
- rel. Fe binding (b) [1]: 1.0
- Pcoeff*Fe binding (a*b) [1]: 9.3
- rel. Pcoeff (a) [2]: 9.0
- IC50 [3, 7]: 3 ± 1 µM

SMILES: CCC(COCCC(=O)N[C@H](C(=O)N(C)O)C(C)C)(COCCC(=O)N[C@H](C(=O)N(C)O)C(C)C)COCCC(=O)N[C@H](C(=O)N(C)O)C(C)C [(L--val) n=2]
- rel. Fe binding (b) [1]: 1.31
- Pcoeff*Fe binding (a*b) [1]: 2.8
- rel. Pcoeff (a) [2]: 2.1
- IC50 [3, 7]: 6 ± 2 µM

SMILES: CCC(COCCC(=O)N1CCC[C@H]1C(=O)N(C)O)(COCCC(=O)N1CCC[C@H]1C(=O)N(C)O)COCCC(=O)N1CCC[C@H]1C(=O)N(C)O [SFI--pro]
- Relative binding [1]: 14
- rel. Fe binding (b) [1]: 0.16
- Pcoeff*Fe binding (a*b) [1]: 0.06
- Extraction efficiency [4]: 38
- logP [2]: -0.187
- rel. Pcoeff (a) [2]: 0.4
- IC50 [5]: > 100 µg/mL
- IC50 ([3]; 40 h, read-out: IC50 (c)): > 100 µM
- Hydrophobicity [6]: 1.5
